Experiments:
[1] = Cytotoxicity against MDCK cells assessed as reduction in cell viability measured after 72 hrs by CCK8 analysis; assay type: cell-based, Canis lupus familiaris; details: dog
[2] = target: Polymerase basic protein 2 (Influenza A virus (strain A/Puerto Rico/8/1934 H1N1), UniProt P03428); test: Binding affinity to CM5 immobilized N-terminal His/Sumo tagged Influenza A virus (A/WSN/1933(H1N1)) PB2 CBD (318 to 486 residues) expressed in Escherichia coli by surface plasmon resonance assay
Sequence of Polymerase basic protein 2 (P03428 whole entry, the tested form may be a part): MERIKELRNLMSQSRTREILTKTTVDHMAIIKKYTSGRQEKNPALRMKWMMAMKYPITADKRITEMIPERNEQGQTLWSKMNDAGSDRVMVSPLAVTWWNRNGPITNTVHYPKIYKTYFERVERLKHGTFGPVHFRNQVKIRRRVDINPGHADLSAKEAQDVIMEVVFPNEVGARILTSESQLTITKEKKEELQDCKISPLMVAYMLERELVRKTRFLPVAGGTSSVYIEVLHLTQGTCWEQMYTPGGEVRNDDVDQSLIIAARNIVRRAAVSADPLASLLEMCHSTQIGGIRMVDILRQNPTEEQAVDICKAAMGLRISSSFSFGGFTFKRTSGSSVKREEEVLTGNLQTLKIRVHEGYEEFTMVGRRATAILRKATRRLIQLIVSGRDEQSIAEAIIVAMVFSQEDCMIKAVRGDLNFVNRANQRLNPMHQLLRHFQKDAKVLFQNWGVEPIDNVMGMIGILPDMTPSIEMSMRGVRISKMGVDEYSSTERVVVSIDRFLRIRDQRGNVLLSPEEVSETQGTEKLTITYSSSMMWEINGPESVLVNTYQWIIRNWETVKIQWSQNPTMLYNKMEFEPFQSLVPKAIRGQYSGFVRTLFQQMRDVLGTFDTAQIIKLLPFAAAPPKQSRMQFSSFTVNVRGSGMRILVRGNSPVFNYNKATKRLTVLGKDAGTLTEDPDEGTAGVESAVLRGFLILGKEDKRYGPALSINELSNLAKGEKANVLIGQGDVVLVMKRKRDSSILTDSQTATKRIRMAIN

[3] = tested on: Influenza A virus (A/Puerto Rico/8/1934(H1N1)); test: Antiviral activity against Influenza A virus (A/Puerto Rico 8/1934 (H1N1)) infected in MDCK cells assessed as inhibition of virus-induced cytopathic effect measured after 72 hrs by CellTiter-Glo viability assay; assay type: functional, organism-based
[4] = Antiviral activity against Influenza A virus (A/Hong Kong/1-8/1968(H3N2)) infected in MDCK cells assessed as inhibition of virus-induced cytopathic effect measured after 72 hrs by CellTiter-Glo viability assay; assay type: functional, cell-based

Row | Structure (SMILES) | CC50 at 72 h [1] | Kd [2] | EC50 [3] | EC50 [4]
1 | O=C(O)CSc1nc(-c2ccccc2)nc2c1oc1ccccc12 | > 100 µM | 0.25 µM | 22.4 µM | 27 µM
2 | O=c1[nH]c2ccc(NCc3ccc(Cl)c(Cl)c3)cc2[nH]1 | > 100 µM | 6.4 µM | 21.7 µM | 7.44 µM
3 | O=C1c2ccccc2C(=O)c2cc(OC[C@H](O)Cn3cnc4ccccc43)ccc21 | > 100 µM | 2.2 µM | 33.2 µM | 25.2 µM
4 | O=C(O)CSc1cc(O)c2c(c1O)C(=O)c1ccccc1C2=O | 49.7 µM | 0.58 µM | 5.81 µM | 7.55 µM
5 | Cc1c(O[C@H](C(=O)O)c2ccccc2)ccc2c1oc(=O)c1ccccc12 | > 100 µM | 0.11 µM | 26.5 µM | 15.1 µM
6 | O=C(c1cc(=O)[nH]c2ccccc12)N1CCc2[nH]c3ccccc3c2C1 | > 100 µM | 1.6 µM | 42.8 µM | 41.5 µM
7 | CCC(CC)O[C@@H]1C=C(C(=O)O)C[C@H](N)[C@H]1NC(C)=O [OSELTAMIVIR CARBOXYLATE] | > 100 µM | – | 3.07 µM | 0.03 µM
8 | O=C(O)[C@H]1C2CCC(CC2)[C@@H]1Nc1nc(-c2c[nH]c3ncc(F)cc23)ncc1F [PIMODIVIR] | > 100 µM | 0.054 µM | < 0.005 µM | 1.84 µM

— ChEMBL document CHEMBL5053554, “Identification of novel influenza polymerase PB2 inhibitors using virtual screening approach and molecular dynamics simulation analysis of active compounds” (Bioorg Med Chem, 2021)
